Data published in patent US20230219931A1, “FUSED HETEROARYL HYDROXAMATES AS STING AGONISTS” (BiSiChem Co., Ltd., priority 2022, published 2023).
Where a name gives a salt, the structure may show the parent alone.

Test system: ISG reporter activity in THP1-Dual cell
Assay: ISG reporter assay
Assay type: cell-based
Conditions: Homo sapiens, compounds incubated with cells for 24 hours, QUANTI-Blue, absorbance at 655 nm
Procedure: [Worded in the source for another cell line; this cell line is reported under the same test.] THP1-Blue cells (cat. no. thp-isg) were purchased from InvivoGen (Sandiago, USA). Penicillin—streptomycin (cat. no. L0022-100), Fetal Bovine Serum (FBS) (cat. no. S1480-500) and Roswell Park Memorial Institute (RPMI) 1640 media (cat. L0498-500) were purchased from biowest (Nuaille, France). Zeocin (cat. no. ant-zn-OS) and Normocin (cat. no. ant-nr-1) were purchased from InvivoGen (Sandiago, USA). QUANTI-Blue™ (cat. no. rep-qbs) was purchased from InvivoGen. THP1-Blue cells were cultured in RPMI 1640 medium with 10% heat-inactivated FBS, 100 μg/ml Normocin, 100 μg/ml Zeocin and 100 U/ml-100 μg/ml penicillin-streptomycin. The cells were incubated at 37° C. in a humidified atmosphere of 5% CO2.
THP1-Blue cells were seeded at 5×10^4 cells/well (90 μl/well). 10 μl of compounds were added to the cells and incubated for 24 hours. 20 μl of cell culture supernatant was dispensed new 96-well plate (cat. no. 30096) with 180 μl of QUANTI-Blue™ solution and incubated for 15 minutes at 37° C. The absorbance was measured by Varioskan Lux (Thermofisher Scientific, USA) at 655 nm.

EC50 [nM]	Structure (SMILES)
< 50	CCn1nc(C)cc1C(=O)Nc1nc2cc(C(N)=O)cc(OC)c2n1C/C=C/Cn1c(NC(=O)c2cc(C)nn2CC)nc2cc(C(N)=O)cc(OCC#CC3CCN(C(=O)C4CCN(C(=O)OC(C)(C)C)CC4)CC3)c21 [Example 12, tert-butyl (E)-4-(4-(3-((5-carbamoyl-1-(4-(5-carbamoyl-2-(1-ethyl-3-methyl-1H-pyrazole-5-carboxamido)-7-methoxy-1H-benzo[d]imidazol-1-yl)but-2-en-1-yl)-2-(1-ethyl-3-methyl-1H-pyrazole-5-carboxamido)-1H-benzo[d]imidazol-7-yl)oxy)prop-1-yn-1-yl)piperidine-1-carbonyl)piperidine-1-carboxylate]
< 50	CCn1nc(C)cc1C(=O)Nc1nc2cc(C(N)=O)cc(OC)c2n1C/C=C/Cn1c(NC(=O)c2cc(C)nn2CC)nc2cc(C(N)=O)cc(OCC#CC3CCN(C(=O)c4cc(C)nn4CC)CC3)c21 [Example 13, (E)-1-(4-(5-carbamoyl-2-(1-ethyl-3-methyl-1H-pyrazole-5-carboxamido)-7-methoxy-1H-benzo[d]imidazol-1-yl)but-2-en-1-yl)-7-((3-(1-(1-ethyl-3-methyl-1H-pyrazole-5-carbonyl)piperidin-4-yl)prop-2-yn-1-yl)oxy)-2-(1-ethyl-3-methyl-1H-pyrazole-5-carboxamido)-1H-benzo[d]imidazole-5-carboxamide]
< 50	CCn1nc(C)cc1C(=O)Nc1nc2cc(C(N)=O)cc(OC)c2n1C/C=C/Cn1c(NC(=O)c2cc(C)nn2CC)nc2cc(C(N)=O)cc(OCC#CC3CCN(C(=O)NC4CC4)CC3)c21 [Example 14, (E)-1-(4-(5-carbamoyl-2-(1-ethyl-3-methyl-1H-pyrazole-5-carboxamido)-7-methoxy-1H-benzo[d]imidazol-1-yl)but-2-en-1-yl)-7-((3-(1-(cyclopropylcarbamoyl)piperidin-4-yl)prop-2-yn-1-yl)oxy)-2-(1-ethyl-3-methyl-1H-pyrazole-5-carboxamido)-1H-benzo[d]imidazole-5-carboxamide]
< 50	CCn1nc(C)cc1C(=O)Nc1nc2cc(C(N)=O)cc(OC)c2n1C/C=C/Cn1c(NC(=O)c2cc(C)nn2CC)nc2cc(C(N)=O)cc(OCC#CC3CCN(C(=O)N4CCOCC4)CC3)c21 [Example 15, (E)-1-(4-(5-carbamoyl-2-(1-ethyl-3-methyl-1H-pyrazole-5-carboxamido)-7-((3-(1-(morpholine-4-carbonyl)piperidin-4-yl)prop-2-yn-1-yl)oxy)-1H-benzo[d]imidazol-1-yl)but-2-en-1-yl)-2-(1-ethyl-3-methyl-1H-pyrazole-5-carboxamido)-7-methoxy-1H-benzo[d]imidazole-5-carboxamide]
< 50	CCn1nc(C)cc1C(=O)Nc1nc2cc(C(N)=O)cc(OC)c2n1C/C=C/Cn1c(NC(=O)c2cc(C)nn2CC)nc2cc(C(N)=O)cc(OCC#CC3CCN(C(=O)N4CCN(C(=O)OC(C)(C)C)CC4)CC3)c21 [Example 16, tert-butyl (E)-4-(4-(3-((5-carbamoyl-1-(4-(5-carbamoyl-2-(1-ethyl-3-methyl-1H-pyrazole-5-carboxamido)-7-methoxy-1H-benzo[d]imidazol-1-yl)but-2-en-1-yl)-2-(1-ethyl-3-methyl-1H-pyrazole-5-carboxamido)-1H-benzo[d]imidazol-7-yl)oxy)prop-1-yn-1-yl)piperidine-1-carbonyl)piperazine-1-carboxylate]
< 50	CCn1nc(C)cc1C(=O)Nc1nc2cc(C(N)=O)cc(OC)c2n1C/C=C/Cn1c(NC(=O)c2cc(C)nn2CC)nc2cc(C(N)=O)cc(OCC#CC3CCN(C(=O)N4CCNCC4)CC3)c21 [Example 17, (E)-1-(4-(5-carbamoyl-2-(1-ethyl-3-methyl-1H-pyrazole-5-carboxamido)-7-((3-(1-(piperazine-1-carbonyl)piperidin-4-yl)prop-2-yn-1-yl)oxy)-1H-benzo[d]imidazol-1-yl)but-2-en-1-yl)-2-(1-ethyl-3-methyl-1H-pyrazole-5-carboxamido)-7-methoxy-1H-benzo[d]imidazole-5-carboxamide hydrochloride]
< 50	CCn1nc(C)cc1C(=O)Nc1nc2cc(C(N)=O)cc(OC)c2n1C/C=C/Cn1c(NC(=O)c2cc(C)nn2CC)nc2cc(C(N)=O)cc(OCC#CC3CCN(C(=O)N4CCC(O)CC4)CC3)c21 [Example 18, (E)-1-(4-(5-carbamoyl-2-(1-ethyl-3-methyl-1H-pyrazole-5-carboxamido)-7-((3-(1-(4-hydroxypiperidine-1-carbonyl)piperidin-4-yl)prop-2-yn-1-yl)oxy)-1H-benzo[d]imidazol-1-yl)but-2-en-1-yl)-2-(1-ethyl-3-methyl-1H-pyrazole-5-carboxamido)-7-methoxy-1H-benzo[d]imidazole-5-carboxamide]
< 50	CCn1nc(C)cc1C(=O)Nc1nc2cc(C(N)=O)cc(OC)c2n1C/C=C/Cn1c(NC(=O)c2cc(C)nn2CC)nc2cc(C(N)=O)cc(OCC#CC3CCN(S(C)(=O)=O)CC3)c21 [Example 19, (E)-1-(4-(5-carbamoyl-2-(1-ethyl-3-methyl-1H-pyrazole-5-carboxamido)-7-((3-(1-(methylsulfonyl)piperidin-4-yl)prop-2-yn-1-yl)oxy)-1H-benzo[d]imidazol-1-yl)but-2-en-1-yl)-2-(1-ethyl-3-methyl-1H-pyrazole-5-carboxamido)-7-methoxy-1H-benzo[d]imidazole-5-carboxamide]
< 50	CCn1nc(C)cc1C(=O)Nc1nc2cc(C(N)=O)cc(OC)c2n1C/C=C/Cn1c(NC(=O)c2cc(C)nn2CC)nc2cc(C(N)=O)cc(OCC#CC3CCN(S(=O)(=O)C(C)C)CC3)c21 [Example 20, (E)-1-(4-(5-carbamoyl-2-(1-ethyl-3-methyl-1H-pyrazole-5-carboxamido)-7-((3-(1-(isopropylsulfonyl)piperidin-4-yl)prop-2-yn-1-yl)oxy)-1H-benzo[d]imidazol-1-yl)but-2-en-1-yl)-2-(1-ethyl-3-methyl-1H-pyrazole-5-carboxamido)-7-methoxy-1H-benzo[d]imidazole-5-carboxamide]
< 50	CCn1nc(C)cc1C(=O)Nc1nc2cc(C(N)=O)cc(OC)c2n1C/C=C/Cn1c(NC(=O)c2cc(C)nn2CC)nc2cc(C(N)=O)cc(OCC#CC3CCN(S(=O)(=O)C4CC4)CC3)c21 [Example 21, (E)-1-(4-(5-carbamoyl-2-(1-ethyl-3-methyl-1H-pyrazole-5-carboxamido)-7-methoxy-1H-benzo[d]imidazol-1-yl)but-2-en-1-yl)-7-((3-(1-(cyclopropylsulfonyl)piperidin-4-yl)prop-2-yn-1-yl)oxy)-2-(1-ethyl-3-methyl-1H-pyrazole-5-carboxamido)-1H-benzo[d]imidazole-5-carboxamide]
< 50	CCn1nc(C)cc1C(=O)Nc1nc2cc(C(N)=O)cc(OC)c2n1C/C=C/Cn1c(NC(=O)c2cc(C)nn2CC)nc2cc(C(N)=O)cc(OCC#CC3CCN(S(=O)(=O)C4CCCC4)CC3)c21 [Example 22, (E)-1-(4-(5-carbamoyl-2-(1-ethyl-3-methyl-1H-pyrazole-5-carboxamido)-7-methoxy-1H-benzo[d]imidazol-1-yl)but-2-en-1-yl)-7-((3-(1-(cyclopentylsulfonyl)piperidin-4-yl)prop-2-yn-1-yl)oxy)-2-(1-ethyl-3-methyl-1H-pyrazole-5-carboxamido)-1H-benzo[d]imidazole-5-carboxamide]
< 50	CCn1nc(C)cc1C(=O)Nc1nc2cc(C(N)=O)cc(OC)c2n1C/C=C/Cn1c(NC(=O)c2cc(C)nn2CC)nc2cc(C(N)=O)cc(OCC#CC3CCN(S(=O)(=O)c4ccc(C)cc4)CC3)c21 [Example 23, (E)-1-(4-(5-carbamoyl-2-(1-ethyl-3-methyl-1H-pyrazole-5-carboxamido)-7-((3-(1-tosylpiperidin-4-yl)prop-2-yn-1-yl)oxy)-1H-benzo[d]imidazol-1-yl)but-2-en-1-yl)-2-(1-ethyl-3-methyl-1H-pyrazole-5-carboxamido)-7-methoxy-1H-benzo[d]imidazole-5-carboxamide]
< 50	CCn1nc(C)cc1C(=O)Nc1nc2cc(C(N)=O)cc(OC)c2n1C/C=C/Cn1c(NC(=O)c2cc(C)nn2CC)nc2cc(C(N)=O)cc(OCC#CC3CCN(S(=O)(=O)N(C)C)CC3)c21 [Example 24, (E)-1-(4-(5-carbamoyl-2-(1-ethyl-3-methyl-1H-pyrazole-5-carboxamido)-7-methoxy-1H-benzo[d]imidazol-1-yl)but-2-en-1-yl)-7-((3-(1-(N,N-dimethylsulfamoyl)piperidin-4-yl)prop-2-yn-1-yl)oxy)-2-(1-ethyl-3-methyl-1H-pyrazole-5-carboxamido)-1H-benzo[d]imidazole-5-carboxamide]
< 50	CCN(CC)S(=O)(=O)N1CCC(C#CCOc2cc(C(N)=O)cc3nc(NC(=O)c4cc(C)nn4CC)n(C/C=C/Cn4c(NC(=O)c5cc(C)nn5CC)nc5cc(C(N)=O)cc(OC)c54)c23)CC1 [Example 25, (E)-1-(4-(5-carbamoyl-2-(1-ethyl-3-methyl-1H-pyrazole-5-carboxamido)-7-methoxy-1H-benzo[d]imidazol-1-yl)but-2-en-1-yl)-7-((3-(1-(N,N-diethylsulfamoyl)piperidin-4-yl)prop-2-yn-1-yl)oxy)-2-(1-ethyl-3-methyl-1H-pyrazole-5-carboxamido)-1H-benzo[d]imidazole-5-carboxamide]
